Results: PMC6321168, “Comparative Study on Excretive Characterization of Main Components in Herb Pair Notoginseng-Safflower and Single Herbs by LC–MS/MS” (Pharmaceutics, 2018)

Test: Fecal excretion study in rats after oral NS, SF or CNS (LC–MS/MS)
Assay type: in vivo
Conditions: rat feces
Outline: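 Fasted male rats (n = 6/group) dosed by oral gavage with NS 60 mg/kg, SF 50 mg/kg or both; feces collected in metabolic cages over intervals to 120 h. Water extracts partitioned into n-BuOH and quantified by negative-ESI LC–MS/MS (MRM); excretion given as % cumulative of ingested dose.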

Compound `CC(C)=CCC[C@](C)(O[C@@H]1O[C@H](CO)[C@@H](O)[C@H](O)[C@H]1O)[C@H]1CC[C@]2(C)[C@@H]1[C@H](O)C[C@@H]1[C@@]3(C)CC[C@H](O[C@@H]4O[C@H](CO)[C@@H](O)[C@H](O)[C@H]4O[C@@H]4O[C@H](CO)[C@@H](O)[C@H](O)[C@H]4O)C(C)(C)[C@@H]3CC[C@]12C` [ginsenoside Rd] has a concentration at 4 h (male, Sprague Dawley, oral CNS 110 mg/kg, 4 h) of 204 ± 283 ng/mL, a concentration at 8 h (male, Sprague Dawley, oral CNS 110 mg/kg, 8 h) of 274 ± 65 ng/mL and a concentration at 12 h (male, Sprague Dawley, oral CNS 110 mg/kg, 12 h) of 164 ± 12 ng/mL. The concentration at 24 h (male, Sprague Dawley, oral CNS 110 mg/kg, 24 h) was 119 ± 51 ng/mL, the concentration at 36 h (male, Sprague Dawley, oral CNS 110 mg/kg, 36 h) was 653 ± 41 ng/mL and the concentration at 48 h (male, Sprague Dawley, oral CNS 110 mg/kg, 48 h) was 658 ± 72 ng/mL. The concentration at 72 h (male, Sprague Dawley, oral CNS 110 mg/kg, 72 h) was 153 ± 72 ng/mL, the concentration at 96 h (male, Sprague Dawley, oral CNS 110 mg/kg, 96 h) was 35 ± 34 ng/mL and the concentration at 4 h (male, Sprague Dawley, oral NS 60 mg/kg, 4 h) was 752 ± 79 ng/mL. The concentration at 8 h (male, Sprague Dawley, oral NS 60 mg/kg, 8 h) was 605 ± 22 ng/mL, the concentration at 12 h (male, Sprague Dawley, oral NS 60 mg/kg, 12 h) was 602 ± 49 ng/mL and the concentration at 24 h (male, Sprague Dawley, oral NS 60 mg/kg, 24 h) was 670 ± 34 ng/mL. For the same compound, the concentration at 36 h (male, Sprague Dawley, oral NS 60 mg/kg, 36 h) was 505 ± 14 ng/mL, the concentration at 48 h (male, Sprague Dawley, oral NS 60 mg/kg, 48 h) was 704 ± 26 ng/mL and the concentration at 72 h (male, Sprague Dawley, oral NS 60 mg/kg, 72 h) was 122 ± 5 ng/mL. For the same compound, the concentration at 96 h (male, Sprague Dawley, oral NS 60 mg/kg, 96 h) was 17 ± 1 ng/mL, the concentration at 120 h (male, Sprague Dawley, oral NS 60 mg/kg, 120 h) was 15 ± 2 ng/mL and the Accumulative excretion amount (oral CNS 110 mg/kg, 4 h) was 2.579 ± 3.701 µg. The Accumulative excretion percentage (oral CNS 110 mg/kg, 4 h) was 0.343±0.491%, the Excretion amount (oral CNS 110 mg/kg, 4 h) was 2.579 ± 3.701 µg and the Accumulative excretion amount (oral CNS 110 mg/kg, 8 h) was 6.687 ± 3.535 µg. For the same compound, the Accumulative excretion percentage (oral CNS 110 mg/kg, 8 h) was 0.883±0.462%, the Excretion amount (oral CNS 110 mg/kg, 8 h) was 4.108 ± 1.195 µg and the Accumulative excretion amount (oral CNS 110 mg/kg, 12 h) was 9.145 ± 3.524 µg. For the same compound, the Accumulative excretion percentage (oral CNS 110 mg/kg, 12 h) was 1.204±0.465%, the Excretion amount (oral CNS 110 mg/kg, 12 h) was 2.459 ± 0.753 µg and the Accumulative excretion amount (oral CNS 110 mg/kg, 24 h) was 11.000 ± 3.256 µg. The Accumulative excretion percentage (oral CNS 110 mg/kg, 24 h) was 1.453±0.432%, the Excretion amount (oral CNS 110 mg/kg, 24 h) was 1.855 ± 1.046 µg and the Accumulative excretion amount (oral CNS 110 mg/kg, 36 h) was 20.700 ± 5.415 µg. For the same compound, the Accumulative excretion percentage (oral CNS 110 mg/kg, 36 h) was 2.724±0.715%, the Excretion amount (oral CNS 110 mg/kg, 36 h) was 9.700 ± 2.660 µg and the Accumulative excretion amount (oral CNS 110 mg/kg, 48 h) was 30.478 ± 7.801 µg. The Accumulative excretion percentage (oral CNS 110 mg/kg, 48 h) was 4.011±1.032%, the Excretion amount (oral CNS 110 mg/kg, 48 h) was 9.778 ± 2.743 µg and the Accumulative excretion amount (oral CNS 110 mg/kg, 72 h) was 32.881 ± 8.515 µg. For the same compound, the Accumulative excretion percentage (oral CNS 110 mg/kg, 72 h) was 4.322±1.123%, the Excretion amount (oral CNS 110 mg/kg, 72 h) was 2.403 ± 1.477 µg and the Accumulative excretion amount (oral CNS 110 mg/kg, 96 h) was 33.451 ± 8.722 µg. For the same compound, the Accumulative excretion percentage (oral CNS 110 mg/kg, 96 h) was 4.403±1.154%, the Excretion amount (oral CNS 110 mg/kg, 96 h) was 0.570 ± 0.568 µg and the Accumulative excretion percentage (oral CNS 110 mg/kg, 120 h) was 4.404±1.151%. It also gave an Accumulative excretion amount (oral NS 60 mg/kg, 4 h) of 10.755 ± 3.385 µg, an Accumulative excretion percentage (oral NS 60 mg/kg, 4 h) of 1.232±0.395% and an Excretion amount (oral NS 60 mg/kg, 4 h) of 10.755 ± 3.385 µg. For the same compound, the Accumulative excretion amount (oral NS 60 mg/kg, 8 h) was 19.476 ± 6.086 µg, the Accumulative excretion percentage (oral NS 60 mg/kg, 8 h) was 2.244± 0.706% and the Excretion amount (oral NS 60 mg/kg, 8 h) was 8.721 ± 2.813 µg. It also gave an Accumulative excretion amount (oral NS 60 mg/kg, 12 h) of 28.152 ± 8.861 µg, an Accumulative excretion percentage (oral NS 60 mg/kg, 12 h) of 3.232±1.024% and an Excretion amount (oral NS 60 mg/kg, 12 h) of 8.676 ± 2.808 µg. For the same compound, the Accumulative excretion amount (oral NS 60 mg/kg, 24 h) was 37.713 ± 11.637 µg, the Accumulative excretion percentage (oral NS 60 mg/kg, 24 h) was 4.331±1.342% and the Excretion amount (oral NS 60 mg/kg, 24 h) was 9.562 ± 2.795 µg. For the same compound, the Accumulative excretion amount (oral NS 60 mg/kg, 36 h) was 45.004 ± 14.004 µg, the Excretion amount (oral NS 60 mg/kg, 36 h) was 7.290 ± 2.427 µg and the Accumulative excretion amount (oral NS 60 mg/kg, 48 h) was 55.154 ± 17.338 µg. For the same compound, the Accumulative excretion percentage (oral NS 60 mg/kg, 48 h) was 6.332±1.991%, the Excretion amount (oral NS 60 mg/kg, 48 h) was 10.151 ± 3.361 µg and the Accumulative excretion amount (oral NS 60 mg/kg, 72 h) was 56.907 ± 17.892 µg. For the same compound, the Accumulative excretion percentage (oral NS 60 mg/kg, 72 h) was 6.534±2.048%, the Excretion amount (oral NS 60 mg/kg, 72 h) was 1.753 ± 0.562 µg and the Accumulative excretion amount (oral NS 60 mg/kg, 96 h) was 57.148 ± 17.967 µg. It also gave an Accumulative excretion percentage (oral NS 60 mg/kg, 96 h) of 6.563±2.059%, an Excretion amount (oral NS 60 mg/kg, 96 h) of 0.241 ± 0.076 µg and an Accumulative excretion amount (oral NS 60 mg/kg, 120 h) of 57.371 ± 18.037 µg. It also gave an Accumulative excretion percentage (oral NS 60 mg/kg, 120 h) of 6.589±2.068% and an Excretion amount (oral NS 60 mg/kg, 120 h) of 0.223 ± 0.076 µg.
